As a reminder, the IC50 is the midpoint of a concentration-inhibition curve. A higher IC50 goes with weaker potency.

The values below come from patent publication US10875852B2, “Heteroaromatic compounds as BTK inhibitors” (Boehringer Ingelheim International GmbH, priority 2012, dated 2020).

The target in the experiment is full-length human His-tagged BTK (Homo sapiens (Human), UniProt Q06187). Description: BTK HTRF assay (Cisbio KinEASE-TK). Type of experiment: biochemical. The note with it: 6 nM BTK, 30 uM ATP, 15 min preincubation.
full-length human His-tagged BTK, sequence (Q06187 whole entry): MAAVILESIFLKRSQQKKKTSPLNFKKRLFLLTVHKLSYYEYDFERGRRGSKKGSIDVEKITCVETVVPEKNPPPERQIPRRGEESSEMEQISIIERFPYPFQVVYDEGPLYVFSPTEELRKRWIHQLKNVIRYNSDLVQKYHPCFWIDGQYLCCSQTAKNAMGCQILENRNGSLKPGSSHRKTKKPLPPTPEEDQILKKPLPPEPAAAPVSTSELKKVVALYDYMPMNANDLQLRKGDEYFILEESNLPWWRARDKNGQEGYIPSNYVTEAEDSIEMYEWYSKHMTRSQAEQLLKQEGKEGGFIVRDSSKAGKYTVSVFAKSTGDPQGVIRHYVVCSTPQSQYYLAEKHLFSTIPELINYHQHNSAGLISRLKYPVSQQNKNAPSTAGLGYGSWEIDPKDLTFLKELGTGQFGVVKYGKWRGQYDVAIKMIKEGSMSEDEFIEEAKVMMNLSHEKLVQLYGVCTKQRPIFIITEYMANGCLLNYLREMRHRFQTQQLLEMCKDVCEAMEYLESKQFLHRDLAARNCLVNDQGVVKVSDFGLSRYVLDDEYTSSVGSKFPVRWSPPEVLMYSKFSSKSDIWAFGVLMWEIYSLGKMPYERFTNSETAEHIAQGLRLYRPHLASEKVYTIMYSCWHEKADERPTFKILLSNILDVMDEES

Protocol: An HTRF assay (Cisbio KinEASE-TK cat #62TK0PEC) was performed to quantitate the ability of test compounds to inhibit BTK mediated phosphorylation of substrate. Assays were assembled in 384 well plates where 6 nM of full-length human His-tagged BTK (Life Technologies cat # PV3587) and test compound at varying concentrations were preincubated for 15 minutes at 28° C. Then, 1 uM of TK substrate-biotin and 30 uM ATP were added and incubated for an additional 30 minutes at 28° C.

`C=CC(=O)N1CC[C@]2(C1)C[C@H](n1nc(-c3ccc(OC)cc3Cl)c(C(N)=O)c1N)C2` [Example 159] gave an IC50 of 20 nM.
